Assays:
PDGFβR = target: T1, PDGFβR (Mus musculus, UniProt P05622); assay: PDGF-induced PDGFβR autophosphorylation in intact Swiss 3T3 cells (FIG. 8); type: cell-based; details: compared with AG2033 at 1 μM
T1 construct: A preparation of purified PDGFR from Swiss 3T3 cell membranes was used; endogenous in cells
Protocol: Kinase reactions, using an isolated PDGFβR preparation, in the presence of 0.03-3 μM tyrphostin, were conducted, utilizing [γ-^32P]ATP as probe. Densitometric evaluation, relative to control lacking the tyrphostin inhibitor (100%), results in the percent autokinase activity, presented in Table 8 and in the dose-response curves for the purified transoid isomers AG2033 (FIG. 6) and AG2043 (FIG. 7). Further comparison between the resulting autoradiogrms for each pair of geometrical isomers AG2033 and AG2034 (upper panel); AG2043 and AG2044 (lower panel), for their inhibitory activity towards PDGF-induced PDGFβR autophosphorylation (concentration range: 0.1-10 μM) in intact cells is presented in FIG. 8. […] Similar potency relation exists between the AG2043 and AG2044 isomers.

PDGF β-receptor [1] = target: T2, PDGF β-receptor (Homo sapiens, UniProt P09619); assay: PDGF-induced PDGFR autophosphorylation in intact PAEC cells; type: cell-based; design: expressed in transfected cells; host or cells: porcine aortic endothelial cells (PAEC), stably transfected; details: intact PAEC cells expressing PDGFR, PDGF-BB stimulated; read-out: IC50 (50% inhibition of phosphorylation) PDGFR
Protocol: Effect of tyrphostins on PDGF-induced PDGFR autophosphorylation in intact PAEC cells: PAEC cells, transfected with either PDGFR or KDR, cultivated in Ham's F-12 medium supplemented with 10% fetal calf serum (FCS), were synchronized for 20 hours in a medium containing 0.01% BSA. […] After stimulation, the cells were solubilized in Nonidet P-40 (1%) containing lysis buffer.
The analysis of PDGF β-receptor phosphorylation was performed as follows. Cell lysates were subjected to immunoprecipitation using the PDGF β-receptor specific antiserum R3 [5]. The precipitates were subjected to polyacrylamide (7.5%) gel electrophoresis in presence of sodium dodecyl sulfate (SDS-PAGE) and were thereafter blotted onto a nitrocellulose membrane (Hybond C-EXTRA, Amersham). Phosphorylated proteins were detected by immunoblotting using the horseradish-peroxidase conjugated phosphotyrosine antibodies PY20 and 4G10 (Upstate Biotechnology), followed by application of secondary horseradish-peroxidase conjugated goat-anti-mouse antibody and chemoluminescence-based detection (ECL, Amersham) and autoradiography.
The data in Table 9 presents the differential potencies of the various compounds with respect to PDGFR and KDR, as was performed on intact PAEC cells expressing these receptors (see experimental methods section above).

neointimal formation = details: controlled local delivery, rat carotid balloon injury model; cited from earlier work
porcine SMC = assay: Inhibition of SMC proliferation and recovery (cell count); type: cell-based; details: 10 μM; for mean reduction in SMC count by day 3: compared to DMSO treated control cells; for reversibility of the inhibitory effect on SMC proliferation: cultures washed on day 7, recovery counted day 13
Protocol: Smooth muscle cells (SMC) were obtained under aseptic conditions from porcine abdominal aortas. Each artery was cut open and the endothelial surface mechanically scraped. The vessels were then cut into 2 mm^2 fragments which were placed in culture dishes with Dulbecco's modified Eagle's medium (DMEM) supplemented with 15% (v/v) fetal calf serum (FCS), 100 u/ml penicillin, 100 μg/ml streptomycin, and […]. The tissue fragments were then placed in an incubator at 37° C. under 9% CO2 atmosphere until SMC outgrowth was detected (typically within 3-7 days). […] For experiments testing the effect of tyrphostins on growth inhibition and recovery (see below), SMC from passages 1-3 were replated in 15 mm wells pretreated with 3 μg/cm^2 fibronectin (Biological Industries, Kibbutz Beit Haemek, Israel) at 15,000 cells/well.
Inhibition of cell proliferation and recovery: Monolayer cell growth inhibition and recovery experiments were repeated 3 or 4 times. Each experiment was performed in triplicate. Approximately 15,000 cells (SMC or PAEC) in 1 ml of culture medium supplemented with either 15% FCS (SMC) or 10% FCS (PAEC) were seeded on day 0 in 15 mm-wells precoated with fibronectin (SMC) or uncoated (PAEC). Cultures were treated with 10 μM of the following tyrphostin compounds: AG2033, AC2034, AG2043 and AG2044 (for SMC) or AG2033 (for PAEC) dissolved in 0.1% DMSO on days 1 and 3. On day 7, cultures were washed and the cells allowed to recover. Typically cells were counted on days 3 and 6 for inhibition, and on day 13 for recovery. The medium supplemented with serum (DMEM for SMC and Ham's F12 for PAEC) was changed every other day throughout the experiment.
Cells were grown in the presence of the specified tyrphostins and were counted on days 3, 6 and 13 in culture. On day 7 the cultures were washed and the cells allowed to recover. […] The inhibitory effect of all three compounds was reversible, and the cells resumed normal growth response as soon as the treatment with the tyrphostins was withdrawn.

[2] = target: epidermal growth factor receptor (Homo sapiens, UniProt P00533); details: cited from earlier work
[3] = test system: DNA synthesis stimulated by insulin, by epidermal growth factor, or by a combination of both; details: cited from earlier work
[4] = test system: fibroblast growth factor-dependent DNA synthesis; details: relative to PDGF-dependent DNA synthesis; cited from earlier work
human PDGF α-receptor = human PDGF α-receptor (Homo sapiens, UniProt P16234); details: cited from earlier work
PDGF β-receptor [5] = target: T2, PDGF β-receptor; details: cited from earlier work
[6] = target: stem cell factor receptor (c-Kit) (Homo sapiens, UniProt P10721); details: cited from earlier work
[7] = target: vascular endothelial growth factor receptor KDR (Homo sapiens, UniProt P35968); details: cited from earlier work
[8] = test system: porcine aortic endothelial cells; details: cited from earlier work
[9] = test system: sis-transfected NIH 3T3 cells; details: cited from earlier work
[10] = test system: src-transformed NIH 3T3 cells; details: cited from earlier work
p60c-src(F527) = target: T3, p60c-src(F527) (Gallus gallus, UniProt P00523, Y527F); details: immunoprecipitated from src-transformed NIH 3T3 cells; cited from earlier work
T3 construct: host or cells: src-transformed NIH 3T3 cells (immunoprecipitate)

T2 sequence (P09619 33-1106): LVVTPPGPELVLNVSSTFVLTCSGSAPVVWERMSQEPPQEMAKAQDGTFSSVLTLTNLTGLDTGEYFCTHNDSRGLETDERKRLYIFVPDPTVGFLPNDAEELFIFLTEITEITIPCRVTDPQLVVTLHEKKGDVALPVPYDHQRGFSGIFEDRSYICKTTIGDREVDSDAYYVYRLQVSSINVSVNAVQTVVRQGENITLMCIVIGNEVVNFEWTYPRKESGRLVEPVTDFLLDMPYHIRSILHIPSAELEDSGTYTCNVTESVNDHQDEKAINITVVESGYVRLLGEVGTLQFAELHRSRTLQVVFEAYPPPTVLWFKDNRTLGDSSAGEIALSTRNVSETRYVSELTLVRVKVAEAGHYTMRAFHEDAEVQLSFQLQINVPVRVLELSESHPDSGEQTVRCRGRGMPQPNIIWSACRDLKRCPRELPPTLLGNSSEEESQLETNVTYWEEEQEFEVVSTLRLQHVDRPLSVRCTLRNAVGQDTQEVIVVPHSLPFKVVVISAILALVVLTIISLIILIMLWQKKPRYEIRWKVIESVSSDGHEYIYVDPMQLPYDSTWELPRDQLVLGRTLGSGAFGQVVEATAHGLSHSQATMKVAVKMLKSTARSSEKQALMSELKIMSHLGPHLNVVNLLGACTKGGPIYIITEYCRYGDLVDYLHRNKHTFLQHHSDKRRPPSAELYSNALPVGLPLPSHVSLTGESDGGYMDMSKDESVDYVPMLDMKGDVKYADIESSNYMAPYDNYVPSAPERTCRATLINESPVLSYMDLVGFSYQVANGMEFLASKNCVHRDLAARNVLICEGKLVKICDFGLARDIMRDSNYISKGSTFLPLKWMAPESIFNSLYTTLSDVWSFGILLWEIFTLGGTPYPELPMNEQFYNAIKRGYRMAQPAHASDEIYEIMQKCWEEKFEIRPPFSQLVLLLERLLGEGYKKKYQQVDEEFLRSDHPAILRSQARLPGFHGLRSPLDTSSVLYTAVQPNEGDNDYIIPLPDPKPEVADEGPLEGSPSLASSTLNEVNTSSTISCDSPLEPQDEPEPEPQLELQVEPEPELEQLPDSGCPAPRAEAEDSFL
epidermal growth factor receptor, sequence (P00533 25-1210, species assumed): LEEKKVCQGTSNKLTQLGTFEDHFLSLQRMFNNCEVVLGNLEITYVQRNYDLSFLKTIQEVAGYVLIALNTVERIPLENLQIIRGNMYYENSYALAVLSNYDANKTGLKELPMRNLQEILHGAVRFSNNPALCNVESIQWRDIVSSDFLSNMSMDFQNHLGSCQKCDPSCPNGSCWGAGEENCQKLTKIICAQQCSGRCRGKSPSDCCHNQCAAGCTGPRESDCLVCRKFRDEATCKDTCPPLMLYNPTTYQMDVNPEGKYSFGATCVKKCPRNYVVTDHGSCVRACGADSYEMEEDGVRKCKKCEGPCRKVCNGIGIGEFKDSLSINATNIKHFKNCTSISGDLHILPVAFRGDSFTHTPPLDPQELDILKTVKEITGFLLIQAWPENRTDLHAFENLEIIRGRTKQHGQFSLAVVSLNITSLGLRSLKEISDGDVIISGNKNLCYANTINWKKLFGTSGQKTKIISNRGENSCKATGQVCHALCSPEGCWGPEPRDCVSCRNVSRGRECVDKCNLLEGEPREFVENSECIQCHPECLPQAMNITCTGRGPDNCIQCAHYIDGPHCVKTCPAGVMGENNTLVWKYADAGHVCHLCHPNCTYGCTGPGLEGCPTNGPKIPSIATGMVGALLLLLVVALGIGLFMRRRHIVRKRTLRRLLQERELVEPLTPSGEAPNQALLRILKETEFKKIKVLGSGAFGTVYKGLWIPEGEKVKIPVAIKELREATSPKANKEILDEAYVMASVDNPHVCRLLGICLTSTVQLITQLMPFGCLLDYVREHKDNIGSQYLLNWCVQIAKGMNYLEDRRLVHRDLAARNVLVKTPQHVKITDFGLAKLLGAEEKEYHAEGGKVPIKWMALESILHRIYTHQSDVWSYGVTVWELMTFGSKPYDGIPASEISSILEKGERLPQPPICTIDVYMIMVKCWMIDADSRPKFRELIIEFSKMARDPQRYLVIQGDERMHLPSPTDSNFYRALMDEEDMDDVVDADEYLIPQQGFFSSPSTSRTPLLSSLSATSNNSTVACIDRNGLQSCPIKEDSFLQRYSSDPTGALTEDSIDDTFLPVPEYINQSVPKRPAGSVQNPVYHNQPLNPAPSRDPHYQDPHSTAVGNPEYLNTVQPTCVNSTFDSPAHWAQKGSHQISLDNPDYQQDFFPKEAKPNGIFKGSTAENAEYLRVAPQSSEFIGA
stem cell factor receptor (c-Kit), sequence (P10721 26-976): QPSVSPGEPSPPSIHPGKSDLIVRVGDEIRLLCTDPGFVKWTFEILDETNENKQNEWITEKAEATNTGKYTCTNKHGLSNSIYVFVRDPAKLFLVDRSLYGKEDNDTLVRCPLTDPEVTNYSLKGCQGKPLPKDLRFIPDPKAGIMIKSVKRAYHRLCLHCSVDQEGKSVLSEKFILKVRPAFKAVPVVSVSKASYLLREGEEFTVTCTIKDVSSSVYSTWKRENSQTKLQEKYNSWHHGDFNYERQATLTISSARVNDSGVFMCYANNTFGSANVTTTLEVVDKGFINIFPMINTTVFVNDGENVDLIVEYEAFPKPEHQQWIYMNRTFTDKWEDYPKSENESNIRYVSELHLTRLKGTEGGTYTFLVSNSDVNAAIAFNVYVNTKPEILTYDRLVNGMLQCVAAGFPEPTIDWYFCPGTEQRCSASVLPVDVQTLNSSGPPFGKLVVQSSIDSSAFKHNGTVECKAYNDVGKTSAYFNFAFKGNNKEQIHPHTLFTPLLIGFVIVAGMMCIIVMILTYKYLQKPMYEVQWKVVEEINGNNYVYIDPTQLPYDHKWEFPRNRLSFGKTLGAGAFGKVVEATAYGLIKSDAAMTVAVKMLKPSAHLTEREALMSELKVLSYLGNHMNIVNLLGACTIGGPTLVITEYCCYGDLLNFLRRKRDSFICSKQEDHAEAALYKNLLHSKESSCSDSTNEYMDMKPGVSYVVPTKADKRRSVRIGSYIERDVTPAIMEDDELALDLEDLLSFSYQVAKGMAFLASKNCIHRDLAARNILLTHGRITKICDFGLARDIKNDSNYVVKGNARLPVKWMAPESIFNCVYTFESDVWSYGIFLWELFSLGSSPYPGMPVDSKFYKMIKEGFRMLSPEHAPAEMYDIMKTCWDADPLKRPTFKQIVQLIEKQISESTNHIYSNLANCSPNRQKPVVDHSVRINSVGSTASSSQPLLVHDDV
human PDGF α-receptor, sequence (P16234 24-1089): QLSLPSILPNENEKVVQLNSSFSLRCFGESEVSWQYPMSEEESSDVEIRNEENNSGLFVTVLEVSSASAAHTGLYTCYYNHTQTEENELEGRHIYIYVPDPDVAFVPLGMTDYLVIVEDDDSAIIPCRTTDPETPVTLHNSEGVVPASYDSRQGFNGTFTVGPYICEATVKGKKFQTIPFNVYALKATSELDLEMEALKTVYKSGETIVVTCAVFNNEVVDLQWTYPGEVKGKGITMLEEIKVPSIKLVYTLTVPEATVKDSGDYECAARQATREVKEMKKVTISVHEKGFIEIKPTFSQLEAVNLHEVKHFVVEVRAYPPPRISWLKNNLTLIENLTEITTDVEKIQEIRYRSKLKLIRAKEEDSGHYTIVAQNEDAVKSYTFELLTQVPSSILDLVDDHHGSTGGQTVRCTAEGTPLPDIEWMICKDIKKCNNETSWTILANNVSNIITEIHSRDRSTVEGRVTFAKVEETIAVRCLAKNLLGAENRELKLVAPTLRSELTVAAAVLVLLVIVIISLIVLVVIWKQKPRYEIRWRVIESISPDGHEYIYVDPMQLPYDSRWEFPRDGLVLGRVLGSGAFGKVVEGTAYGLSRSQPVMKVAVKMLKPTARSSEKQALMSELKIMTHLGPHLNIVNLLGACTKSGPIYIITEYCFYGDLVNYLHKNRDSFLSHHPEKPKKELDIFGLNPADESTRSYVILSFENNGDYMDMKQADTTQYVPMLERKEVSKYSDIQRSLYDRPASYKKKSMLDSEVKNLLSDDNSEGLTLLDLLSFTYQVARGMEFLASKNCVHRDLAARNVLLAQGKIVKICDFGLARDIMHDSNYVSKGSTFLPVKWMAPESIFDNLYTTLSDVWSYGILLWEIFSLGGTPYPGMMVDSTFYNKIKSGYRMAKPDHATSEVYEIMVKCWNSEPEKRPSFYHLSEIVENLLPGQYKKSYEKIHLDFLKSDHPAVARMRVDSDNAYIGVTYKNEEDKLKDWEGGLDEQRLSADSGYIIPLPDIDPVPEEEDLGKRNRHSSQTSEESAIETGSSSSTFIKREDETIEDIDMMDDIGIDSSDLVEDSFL

Which “concentration giving similar (marked) inhibition of PDGFβR autophosphorylation in intact cells” value (PDGFβR) does the source give for `Cc1nc2cc3ncc(-c4ccccc4)nc3cc2n1C` [AG2034, 1,2-dimethyl-7-phenyl imidazolo[5,4-g]quinoxaline] here?
Its value is 10 to 30 µM.

What about the melting point of the same compound?
The melting point was 218 °C.

What about the IC50 (PDGF β-receptor [1]) of the same compound?
Its IC50 is 10 µM.

With `CC(C)(C)c1cc(C=C(C#N)C#N)cc(C(C)(C)C)c1O` [AG17] as the compound, how does the “inhibition of neointimal formation” value (neointimal formation) read?
The value was “effectively inhibits”.

For `Cc1nc2cc3ncc(-c4cccs4)nc3cc2n1C` [AG2044, 1,2-dimethyl-7-(2-thiophene) imidazolo[5,4-g]quinoxaline], which “mean reduction in SMC count by day 3” value (porcine SMC) is on record?
The value was 84%.

What about the “reversibility of the inhibitory effect on SMC proliferation” value (porcine SMC) of the same compound?
Its value is “completely reversible”.

What about the melting point of the same compound?
Its melting point is 218 °C.

What about the IC50 (PDGF β-receptor [1]) of the same compound?
Its IC50 is 5 µM.

For `Cc1cc2ncc(-c3ccccc3)nc2cc1C` [AG1295], which “mean reduction in SMC count by day 3” value (porcine SMC) is on record?
The value was 61%.

What about the “reversibility of the inhibitory effect on SMC proliferation” value (porcine SMC) of the same compound?
Its value is “completely reversible”.

And the “effect on epidermal growth factor receptor autophosphorylation” value [2]?
The value was “no effect”.

What about the “effect on DNA synthesis stimulated by insulin, EGF or a combination of both” value [3] of the same compound?
The value was “weak effects”.

What about the “blocking effect on fibroblast growth factor-dependent DNA synthesis” value [4] of the same compound?
Its value is “over an order of magnitude weaker blocking effect”.

Which “effect on epidermal growth factor receptor autophosphorylation” value [2] does the source give for `COc1cc2ncc(-c3ccccc3)nc2cc1OC` [AG1296] here?
The value was “no effect”.

What about the “effect on DNA synthesis stimulated by insulin, EGF or a combination of both” value [3] of the same compound?
Its value is “weak effects”.

What about the “blocking effect on fibroblast growth factor-dependent DNA synthesis” value [4] of the same compound?
The value was “over an order of magnitude weaker blocking effect”.

And the “inhibition of signalling of human PDGF α-receptor” value (human PDGF α-receptor)?
The value was “potently inhibits”.

What about the “inhibition of signalling of human PDGF β-receptor” value (PDGF β-receptor [5]) of the same compound?
The value was “potently inhibits”.

And the “inhibition of signalling of stem cell factor receptor (c-Kit)” value [6]?
Its value is “potently inhibits”.

What about the “effect on autophosphorylation of KDR” value [7] of the same compound?
Its value is “no effect”.

And the “effect on DNA synthesis induced by VEGF” value [8]?
The value was “no effect”.

What about the “effect on transformed phenotype of sis-transfected NIH 3T3 cells” value [9] of the same compound?
The value was “reverses the transformed phenotype”.

What about the “effect on src-transformed NIH 3T3 cells” value [10] of the same compound?
The value was “no effect”.

And the “effect on activity of kinase p60c-src(F527)” value (p60c-src(F527))?
The value was “no effect”.

Reference: patent US6673798B2, “PDGF receptor kinase inhibitory compounds, their preparation, purification and pharmaceutical compositions including same” (Yissum Research Development Company of the Hebrew …, priority 1999, dated 2004)
